Measured values as given in patent publication US20020192754A1 (MAX-PLANCK-GESELLSCHAFT E.V., priority 1999, published 2002).
Where two headings read alike, the source gives them in different places. Where a SMILES comes first, the peptide text is derived from it. [ ]: non-standard residue; d: D form. The star is where a group is joined. Sta = CC(C)C[C@H](N)[C@@H](O)CC(=O)O; Isovaleryl = CC(C)CC(=O)*; CH2Cl = ClC*

Key:
human GzmK [1] = target: T1, human GzmK (Homo sapiens, UniProt P49863); assay: Inhibition of human GzmK by various inhibitors (residual activity, this study); type: biochemical
T1 construct: Met-Glu N-terminal helper dipeptide (pro-dipeptide) (N, cleaved yes); made in house
T1 sequence (P49863 27-264): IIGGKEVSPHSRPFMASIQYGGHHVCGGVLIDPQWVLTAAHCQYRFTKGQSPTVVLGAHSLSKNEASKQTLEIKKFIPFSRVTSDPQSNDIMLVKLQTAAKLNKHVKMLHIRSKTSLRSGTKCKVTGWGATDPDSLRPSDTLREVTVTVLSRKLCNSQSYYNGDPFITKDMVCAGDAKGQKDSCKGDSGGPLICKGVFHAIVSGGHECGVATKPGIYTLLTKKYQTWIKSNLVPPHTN
Description: These activity tests were performed in wells of a 96-cup tray with respectively 150 μl of the sample volume.
The thiobenzylester substrates and Ellman's reagency were diluted to end concentrations of 0.3 mM in the test buffer (150 mM Tris, 50 mM NaCl, 0.01% Triton X-100, pH 7.6). The various granzyme preparations were likewise diluted to 3-15 nM in the test buffer. The color change occurring with the conversion of the substrates was measured at 405 nm and room temperature over 5 minutes in the ELISA reader. The difference in absorptions at the beginning and after 5 minutes as it relates to time was used to calculate the conversion rate.
After a 60-minute preincubation at RT the residual activity was ascertained in triple batches. Initial activities were determined in buffers containing the same proportion of organic solvents. […] Molar concentrations of active aprotinine were ascertained with the use of activity-titrated bovine trypsin.

human GzmK [2] = target: T1, human GzmK; settings: cited from earlier work
[3] = inhibitor 0.1 mM, I:E 33 x 10^3, 3 nM human GzmK, 60-minute preincubation at RT

With Cl.NCCc1ccc(S(=O)(=O)F)cc1 [PefablocSC] the “Residual Activity (%) This study” value (human GzmK [1]; inhibitor 0.5 mM, I:E 170 x 10^3, 3 nM human GzmK, 60-minute preincubation at RT) was 26.0% and the “Residual Activity (%) This study” value (human GzmK [1]; inhibitor 1.0 mM, I:E 330 x 10^3, 3 nM human GzmK, 60-minute preincubation at RT) was 5.7%.
In the case of N-tosyllysine chloromethylketone [TLCK], the “Residual Activity (%) Babé et al., Bio. Appl. Bioch. 27:117-124 (1998)” value (human GzmK [2]; table row: inhibitor 0.1 mM) is listed as 0% and the “Residual Activity (%) This study” value (human GzmK [1]; [3]) is listed as 91.0%.
In the case of CC(C)CC(=O)N[C@H](C(=O)N[C@H](C(=O)N[C@@H](CC(C)C)[C@@H](O)CC(=O)N[C@@H](C)C(=O)N[C@@H](CC(C)C)[C@@H](O)CC(=O)O)C(C)C)C(C)C [Pepstatin A] (Isovaleryl-VV[Sta]A[Sta]-OH), the “Residual Activity (%) Babé et al., Bio. Appl. Bioch. 27:117-124 (1998)” value (human GzmK [2]; table row: inhibitor 0.001 mM) is given as 100% and the “Residual Activity (%) This study” value (human GzmK [1]; inhibitor 0.001 mM, I:E 0.3 x 10^3, 3 nM human GzmK, 60-minute preincubation at RT) is given as 93.0%.
In the case of Aprotinine, the “Residual Activity (%) Babé et al., Bio. Appl. Bioch. 27:117-124 (1998)” value (human GzmK [2]; table row: inhibitor 0.015 mM) is listed as 0% and the “Residual Activity (%) This study” value (human GzmK [1]; inhibitor 0.015 mM, I:E 5 x 10^3, 3 nM human GzmK, 60-minute preincubation at RT) is listed as 8.6%.
For CC(=O)N[C@@H](CC(C)C)C(=O)N[C@@H](CC(C)C)C(=O)N[C@H](C=O)CCCNC(=N)N [Leupeptin], the “Residual Activity (%) Babé et al., Bio. Appl. Bioch. 27:117-124 (1998)” value (human GzmK [2]; table row: inhibitor 0.2 mM) is given as 50% and the remaining activity at 200 µM (human GzmK [1]; inhibitor 0.2 mM, I:E 67 x 10^3, 3 nM human GzmK, 60-minute preincubation at RT) is given as 78%.
For N=C(N)c1ccccc1 [Benzamidine], the “Residual Activity (%) Babé et al., Bio. Appl. Bioch. 27:117-124 (1998)” value (human GzmK [2]; table row: inhibitor 27.0 mM) is given as 50% and the remaining activity at 27000 µM (human GzmK [1]; inhibitor 27.0 mM, I:E 9000 x 10^3, 3 nM human GzmK, 60-minute preincubation at RT) is given as 43.1%.
With NC(N)=NCCC[C@H](NC(=O)[C@@H]1CCCN1C(=O)[C@H](N)Cc1ccccc1)C(=O)CCl [FPR-CMK] the “Residual Activity (%) This study” value (human GzmK [1]; [3]) was 0.0%.
For O=C(O)CN(CCN(CC(=O)O)CC(=O)O)CC(=O)O [EDTA], the “Residual Activity (%) Babé et al., Bio. Appl. Bioch. 27:117-124 (1998)” value (human GzmK [2]) is given as 100% and the “Residual Activity (%) This study” value (human GzmK [1]) is given as 106.4%.
For “N-tosylphenylalanine chloromethylketone [TPCK]”, the “Residual Activity (%) Babé et al., Bio. Appl. Bioch. 27:117-124 (1998)” value (human GzmK [2]; table row: inhibitor 0.05 mM) is listed as 95% and the “Residual Activity (%) This study” value (human GzmK [1]; inhibitor 0.05 mM, I:E 17 x 10^3, 3 nM human GzmK, 60-minute preincubation at RT) is listed as 96.0%.
Compound NC(N)=NCCC[C@H](NC(=O)CNC(=O)[C@@H](N)CCC(=O)O)C(=O)CCl [EGR-CMK] (H-Glu-Gly-Arg-CH2Cl) has a Residual Activity (%) This study (human GzmK [1]; [3]) of 54.8%.
